Reference: patent publication US20020068712A1, “Use of decreasing levels of functional transient receptor potential gene product” (priority 1999, published 2002)

Experiments:
Assay type in all cases: cell-based, rat
[1] = system: RPAECs; experiment: Whole cell patch clamp determination of store-operated Ca2+ entry
Protocol: Whole cell patch clamp was utilized to measure transmembrane ion flux in thapsigargin-stimulated RPAECs. Confluent RPAECs were enzyme dispersed, seeded onto 35-mm plastic culture dishes, and then allowed to reattach for at least 24 h before patch-clamp experiments were performed. […] These cells were chosen for study because their morphology was consistent with RPAECs from a confluent monolayer. The extracellular and pipette solutions were composed of the following (in mM): 1) extracellular: 110 tetraethylammonium aspartate, 10 calcium aspartate, 10 HEPES, and 0.5 3,4-diaminopyridine; and 2) pipette: 130 N-mehyl-D-glucamine, 1.15 EGTA, 10 HEPES, 1 Ca(OH)2, and 2 Mg^2+-ATP. Both solutions were adjusted to 290-300 mosM with sucrose and pH 7.4 with methane sulfonic acid, and [Ca^2+]i was estimated as 100 nM (10). The pipette resistance was 2-5 MΩ. Data were obtained with a HEKA EPC9 amplifier (Lambrecht/Pfaltz) and sampled on-line with Pulse+Pulsefit software (HEKA). All recordings were made at room temperature (22° C.). To generate current-voltage (I-V) relationships, voltage pulses were applied from −100 to +100 mV in 20-mV increments, with a 200-ms duration during each voltage step and a 2-s interval between steps. The holding potential between each step was 0 mV.

[2] = system: RPAECs; experiment: [Ca2+]i measurement by fura 2 fluorescence
Protocol: RPAECs were seeded onto chambered glass coverslips (Nalge Nunc, Naperville, Ill.) and grown to confluence. [Ca^2+]i was estimated with the Ca^2+-sensitive fluorophore fura 2-AM (Molecular Probes, Eugene, Oreg.) according to methods previously described by our laboratory (38). Because this is the first report of [Ca^2+]i measurements in cultured RPAECS, a summary of the technique will be presented. RPAECs were washed with 2 ml of a HEPES (Fisher Scientific, Atlanta, Ga.)-buffered physiological salt solution (PSS) containing (in g/l) 6.9 NaCl, 0.35 KCl, 0.16 KH2PO4, 0.141 MgSO4, 2.0 D-glucose, and 2.1 NaHCO3. The loading solution (1 ml) consisted of PSS plus 3 μM fura 2-AM, 3 μl of a 10% pluronic acid solution, and 2 mM or 100 nM CaCl2. RPAECs were fura loaded for 20 min in a CO2 incubator at 37° C. After this loading period, the cells were again washed with PSS (2 ml) and treated with deesterification medium (PSS+2 mM or 100 nM CaCl2) for an additional 20 min. After deesterification, [Ca^2+]i was assessed with an Olympus 1×70 inverted microscope at ×400 with a xenon arc lamp photomultiplier system (Photon Technologies, Monmouth Junction, N.J.), and data were acquired and analyzed with PTI Felix software. Epifluorescence (signal averaged) was measured from three to four endothelial cells in a confluent monolayer, and the changes in [Ca^2+]i are expressed as the fluorescence ratio of the Ca^2+-bound (340-nm) to Ca^2+-unbound (380-nm) excitation wavelengths emitted at 510 nm.

[3] = system: RPAECs; experiment: Assessment of endothelial cell shape change (scanning electron micrographs)
Protocol: were seeded onto 35-mm plastic culture dishes and grown to confluence. Growth medium was replaced with experimental buffer (same as that used for [Ca^2+]i measurements but without fura 2), and the cells were subjected to one of the following protocols: 1) vehicle control (5 min) in 2 mM or 100 nM extracellular Ca^2+ concentration ([Ca^2+]o); 2) thapsigargin (1 μM, 5 min) in 2 mM or 100 nM ([Ca^2+]o; or 3) thapsigargin in 100 nM [Ca^2+]o+readdition of 2 mM CaCl2 (5 min). At the end of each experiment, the cell monolayers were fixed in 3% gluteraldehyde-PBS for 2 h. The cells were washed two times with 0.1 M cacodylate buffer, dehydrated by immersion in a series of ethanol dilutions, critical point dried in CO2, and covered with 20 nm of gold. Specimens were viewed at […] at a 15° inclination. Scanning electron micrographs were taken of representative areas in the monolayer by a pathologist blinded to the experimental protocols.

[4] = system: RPAECs; experiment: Assessment of filamentous actin arrangement (confocal microscopy)
Protocol: Experiments to determine filamentous actin (F-actin) arrangement were conducted in parallel with those assessing endothelial cell shape. […] were seeded onto glass coverslips, and F-actin was stained with Oregon Green-phalloidin (Molecular Probes) with a standard fixation and staining protocol. Cells were analyzed by confocal microscopy (excitation at 496 nm and emmision at 520 nm). Micrographs were taken at multiple cellular depths (0.3-μm steps, 13-15 sections) and were used to deduce the microfilamentous cytoskeleton configurations of the cells.

[5] = thapsigargin-stimulated current, data not shown
[6] = thapsigargin in 100 nM [Ca2+]o, then readdition of 2 mM [Ca2+]o

## O=C(O)c1ccccc1Nc1ccccc1 [N-phenylanthranilic acid]
[1]; [5]
  effect on inward current at negative voltages: little effect
  effect on outward current at positive voltages: strongly attenuated

## C/C=C(/C)C(=O)O[C@H]1C(C)=C2[C@H]([C@@H]1OC(=O)CCCCCCC)[C@@](C)(OC(C)=O)C[C@H](OC(=O)CCC)[C@@]1(O)[C@H]2OC(=O)[C@@]1(C)O [Thapsigargin, thapsigargin]
[2]; thapsigargin 1 μM, 2 mM [Ca2+]o
  [Ca2+]i response (fura 2 340/380 fluorescence ratio): gradual increase in [Ca^2+]i to a peak level followed by a modest decline
[2]; [6]
  [Ca2+]i response after readdition of [Ca2+]o: immediate increase in [Ca^2+]i
[2]; thapsigargin, 100 nM [Ca2+]o
  peak and sustained plateau phases of [Ca2+]i response: significantly attenuated
[1]; 1 μM thapsigargin in pipette, at −80 mV
  net inward current stimulated: 5.45±0.90 pA/pF
[1]; 1 μM thapsigargin in pipette, calculated from −100 to −20 mV without respect to cell capacitance
  slope conductance: 1.64 nS
[1]; 1 μM thapsigargin in pipette, whole cell, 3-5 min
  effect on I-V curve: right shifted the I-V curve and increased the current magnitude
[3]; thapsigargin 1 μM, 5 min, 100 nM [Ca2+]o
  endothelial cell shape / intercellular gaps: little change in morphology and a lack of interendothelial gaps
[3]; thapsigargin 1 μM, 5 min, 2 mM [Ca2+]o
  endothelial cell shape / intercellular gaps: endothelial cell retraction and intercellular gap formation
[3]; [6]
  endothelial cell shape / intercellular gaps: pronounced cell retraction and gap formation
[4]; thapsigargin in low [Ca2+]o, then readdition of 2 mM [Ca2+]o
  F-actin arrangement: appearance of dense, transcellular fibers and a decrease in peripheral F-actin staining
[4]; thapsigargin, 2 mM [Ca2+]o
  F-actin arrangement: a decrease in peripheral F-actin density and an increase in the number and/or density of central transcellular F-actin filaments
[4]; thapsigargin, low (100 nM) [Ca2+]o, compared with low [Ca2+]o alone
  F-actin arrangement: only modest changes in F-actin arrangements
